Source: patent US12024531B2, “Immunoproteasome inhibitors” (Principia Biopharma Inc., priority 2017, dated 2024)

Key:
HT29 β5c [1] = molecular target: T1, HT29 β5c (Homo sapiens, UniProt P28074); assay: Inhibition of proteasome activity in cells (Proteasome-Glo), HT29/β5c; type: cell-based; conditions: HT-29 cells, 2 h incubation at 37° C.
Method: The cell-based effects of a compound described herein on the immunoproteasome were determined by measuring inhibition of proteasome activity in cells using the Proteasome-Glo™ Cell-Based Reagent (Promega, Madison WI). The Proteasome-Glo™ assay contains a specific luminogenic proteasome substrate in a buffer optimized for cell permeabilization, proteasome activity, and luciferase activity. For the chymotrypsin-like activity (LMP7 and 05c), the peptide substrate is Suc-LLVY-aminoluciferin (Succinyl-leucine-leucine-valine-tyrosine-aminoluciferin). Cleavage of the substrate by proteasome results in luminescent signal which is proportional to the proteasome activity. The cell line THP-1 (a monocytic leukemia cell line enriched in immunoproteasome), the cell line HT-29 (a colorectal adenocarcinoma cell line enriched in constitutive proteasome), and primary human peripheral blood mononuclear cells (PBMC) were used to assess proteasome activity. Cells were seeded in a 96-well plate at 10,000 cells per well in RPMI 1640 high glucose medium with 10% fetal bovine serum (FBS). […] The plate was read in the Analyst HT instrument (Molecular Devices, Sunnyvale, CA) using luminescence mode. […] The IC50 was then calculated for each compound using Prism software from GraphPad Software Inc. (San Diego, CA).

PBMC LMP2 [2] = molecular target: T2, PBMC LMP2 (Homo sapiens, UniProt P28065); assay: Inhibition of proteasome activity in cells (Proteasome-Glo), PBMC/LMP2; type: cell-based; conditions: 2 h incubation at 37° C.
Method: (§1) The cell-based effects of a compound described herein on the immunoproteasome were determined by measuring inhibition of proteasome activity in cells using the Proteasome-Glo™ Cell-Based Reagent (Promega, Madison WI). The Proteasome-Glo™ assay contains a specific luminogenic proteasome substrate in a buffer optimized for cell permeabilization, proteasome activity, and luciferase activity. For the chymotrypsin-like activity (LMP7 and 05c), the peptide substrate is Suc-LLVY-aminoluciferin (Succinyl-leucine-leucine-valine-tyrosine-aminoluciferin). Cleavage of the substrate by proteasome results in luminescent signal which is proportional to the proteasome activity. The cell line THP-1 (a monocytic leukemia cell line enriched in immunoproteasome), the cell line HT-29 (a colorectal adenocarcinoma cell line enriched in constitutive proteasome), and primary human peripheral blood mononuclear cells (PBMC) were used to assess proteasome activity. Cells were seeded in a 96-well plate at 10,000 cells per well in RPMI 1640 high glucose medium with 10% fetal bovine serum (FBS). Compound dilutions were added to cells starting at a concentration of 5 uM and decreasing in tripling dilutions. The final DMSO concentration was 1%. The concentration range was adjusted as needed for compounds of different potencies. The cells treated with compounds were incubated for 2 h at 37° C. in 5% CO2. At the end of the 2 hour incubation period, cells were transferred to white 384 well assay plates. 20 uL of Proteasome-Glo™ Reagent was added to each well and incubated for 10 minutes at rt. The plate was read in the Analyst HT instrument (Molecular Devices, Sunnyvale, CA) using luminescence mode. The percent inhibition of activity was plotted as a function of log compound concentration. The IC50 was then calculated for each compound using Prism software from GraphPad Software Inc. (San Diego, CA).

[3] = molecular target: immunoproteasome LMP7/B5i subunit (Homo sapiens, UniProt P28062); assay: Caliper-based proteasome enzymatic activity assay, LMP7; type: biochemical; conditions: human recombinant immunoproteasome 0.3 nM, FAM peptide substrate 1 μM, rt 3 h
[4] = molecular target: immunoproteasome LMP2 subunit (Homo sapiens, UniProt P28065); assay: Caliper-based proteasome enzymatic activity assay, LMP2; type: biochemical; conditions: human recombinant immunoproteasome 0.3 nM, FAM peptide substrate 1 μM, rt 2 h
[5] = molecular target: constitutive proteasome β5c subunit (Homo sapiens, UniProt P28074); assay: Caliper-based proteasome enzymatic activity assay, β5c; type: biochemical; conditions: human recombinant constitutive proteasome 0.3 nM, FAM peptide substrate 1 μM, rt 3 h
PBMC LMP7 [6] = molecular target: T3, PBMC LMP7 (Homo sapiens, UniProt P28062); assay: Durability of binding in cells (wash-out, Proteasome-Glo), PBMC LMP7; type: cell-based
Method: (§2) The durability of binding of proteasome inhibitors was assessed in cells using wash-out assays and the Proteasome-Glo™ Reagent kit. THP-1 cells, HT-29 cells, or PBMC were incubated with an 8-fold dilution series of inhibitor for 2 h. Following 2 h of incubation, cells were washed using 3 occasions of centrifugation followed by resuspension in culture medium. Following inhibitor washout, cells were returned to culture for either 30 minutes, 4 h, or 18 h. Cells were then transferred to white 384 plates, and 20 uL of Proteasome-Glo™ Reagent was added to each well for 10 minutes. Plates were then read on an Analyst HT plate reader using luminescence mode. The percent inhibition of activity was plotted as a function of log compound concentration. The IC50 was then calculated for each compound using Prism software from GraphPad.

PBMC LMP2 [7] = molecular target: T2, PBMC LMP2; assay: Durability of binding in cells (wash-out, Proteasome-Glo), PBMC LMP2; type: cell-based
Method: as §2

HT29 β5c [8] = molecular target: T1, HT29 β5c; assay: Durability of binding in cells (wash-out, Proteasome-Glo), HT29 β5c; type: cell-based
Method: as §2

PBMC LMP7 [9] = molecular target: T3, PBMC LMP7; assay: Inhibition of proteasome activity in cells (Proteasome-Glo), PBMC/LMP7; type: cell-based; conditions: 2 h incubation at 37° C.
Method: as §1

[10] = test system: multiple myeloma cell lines and primary patient tumor cells; conditions: cited from earlier work
MRL/lpr lupus model = conditions: cited from earlier work
Th1/17 differentiation = conditions: cited from earlier work
[11] = test system: murine collagen-induced arthritis; conditions: mouse, in vivo; cited from earlier work
[12] = test system: production of proinflammatory cytokines (IL-6, TNF-α, IL-23); conditions: cited from earlier work
[13] = test system: Hashimoto's thyroiditis model; conditions: mouse, in vivo; cited from earlier work
[14] = test system: murine DSS-induced colitis model; conditions: cited from earlier work
prostate PC-3 cell line = conditions: cited from earlier work
tumor growth = conditions: mouse; cited from earlier work

## CC(C)(C)NC(=O)C(C#N)=Cc1cccc(OCCC(=O)N[C@@H](Cc2ccccc2)B(O)O)c1 [Example 2, (R)-(1-(3-(3-(3-(tert-butylamino)-2-cyano-3-oxoprop-1-en-1-yl)phenoxy)propanamido)-2-phenylethyl)boronic Acid]
HT29 β5c [1]
  IC50: 73 nM
PBMC LMP2 [2]
  IC50: 3820 nM
[3]
  IC50: 3 nM
[4]
  IC50: 160 nM
[5]
  IC50: 66 nM
PBMC LMP7 [6]; 30 min after inhibitor washout
  IC50: 5 nM
PBMC LMP7 [6]; 4 hr after inhibitor washout
  IC50: 10 nM
PBMC LMP7 [6]; 18 hr after inhibitor washout
  IC50: 126 nM
PBMC LMP2 [7]; 4 hr after inhibitor washout
  IC50: > 5000 nM
PBMC LMP2 [7]; 18 hr after inhibitor washout
  IC50: > 5000 nM
HT29 β5c [8]; 30 min after inhibitor washout
  IC50: 109 nM
HT29 β5c [8]; 4 hr after inhibitor washout
  IC50: > 5000 nM
HT29 β5c [8]; 18 hr after inhibitor washout
  IC50: > 5000 nM
PBMC LMP7 [9]
  IC50: 5 nM

## CC1=C(C(=O)N[C@H](C)C(=O)N[C@@H](Cc2c[nH]c3ccccc23)C(=O)N[C@@H](Cc2ccccc2)C(=O)[C@@]2(C)CO2)Cc2ccccc21 [PR-924]
[10]
  growth of multiple myeloma cell lines and primary patient tumor cells: inhibit growth

## COc1ccc(C[C@H](NC(=O)[C@H](C)NC(=O)CN2CCOCC2)C(=O)N[C@@H](Cc2ccccc2)C(=O)[C@@]2(C)CO2)cc1 [PR-957]
MRL/lpr lupus model
  plasma cell numbers and anti-dsDNA IgG levels: reduced plasma cell numbers and anti-dsDNA IgG levels
Th1/17 differentiation
  human and mouse Th1/17 differentiation: potently block
[11]
  disease activity in murine collagen-induced arthritis: significantly inhibit disease activity
[12]
  B cell effector functions and production of proinflammatory cytokines (IL-6, TNF-α, IL-23): potently block
[13]
  efficacy in autoantibody-driven Hashimoto's thyroiditis model: efficacious
[14]
  inflammation and tissue destruction: reduced inflammation and tissue destruction

## CCCCCCC(=O)N[C@@H](C)C(=O)N[C@@H](CC(C)C)C(=O)[C@@]1(CO[Si](C)(C)C(C)(C)C)CO1 [UK-101]
Prostate PC-3 cell line
  apoptosis of prostate PC-3 cell line in vitro: induced apoptosis
Tumor growth
  tumor growth in vivo: significantly suppressed tumor growth
